In one data set the test system is RPMI-8226. In words: Alamar Blue cell viability assay, RPMI-8226. Type of data set: cell-based. Conditions: Homo sapiens; RPMI-8226, Myeloma. The protocol:
(§1) The effect of Compound I on cell viability was assessed by Alamar Blue assay of metabolic activity in various cancer cell lines.

The subject of a further data set is HL60. Nature of the data set: Alamar Blue cell viability assay, HL60. Type of data set: cell-based. The settings on record: Homo sapiens, HL-60; HL60, Leukemia. The method, then:
as §1

The subject of another data set is CCD-1058Sk. Nature of the data set: Alamar Blue cell viability assay, CCD-1058Sk. The settings on record: Normal. Type of data set: cell-based. The method, then:
as §1

In another data set the test system is A7. Nature of the data set: Alamar Blue cell viability assay, A7. Type of data set: cell-based. Conditions: A7, Melanoma. The method, then:
as §1

In a further data set the test system is MV 4; 11. In words: Alamar Blue cell viability assay, MV 4; 11. Conditions: Homo sapiens, MV4-11, 11, Leukemia. Type of data set: cell-based. The method, then:
as §1

The next data set has as its system MDA-MB-453. In words: Alamar Blue cell viability assay, MDA-MB-453. Type of data set: cell-based. The settings on record: Homo sapiens; MDA-MB-453, Breast. The method, then: as §1
Another data set relates to CCD-1094Sk. Nature of the data set: Alamar Blue cell viability assay, CCD-1094Sk. Type of data set: cell-based. Conditions: Normal. The protocol: as §1
A further data set has as its system CCD-1096Sk. In words: Alamar Blue cell viability assay, CCD-1096Sk. Type of data set: cell-based. The settings on record: Normal. The method, then: as §1
The next data set deals with SK-OV-3. Nature of the data set: Alamar Blue cell viability assay, SK-OV-3. Type of data set: cell-based. Conditions: Homo sapiens; SK-OV-3, Ovarian. The method, then: as §1
A short description of data set [1]: Dose escalation study in patients, toxicity and adverse events. Type of data set: in vivo, human. The protocol:
Pharmacokinetic studies and dose escalation studies were conducted in adult patients with metastatic, recurrent, locally, advanced, or unresectable solid malignancy (patients with histologically and/or cytologically confirmed solid malignancy), who received prior anti-cancer treatment(s) until disease progression, at 10 different dose levels of Compound I. Groups 1-7 were administered intravenously on days 1 and 8 of a 4-week cycle at 50, 100, 150, 200, 250, 325, and 475 mg/m^2 (lyophilized formulation), respectively. Groups 8-10 were administered intravenously on days 1,8, and 15 of a 4-week cycle at 325, 475, and 650 mg/m^2 (lyophilized formulation), respectively. Each patient received each dose over 1 hour by IV infusion on days described above.

Data set [2] deals with BRCA2 knockout tumor cells. In words: BRCA2 knockout tumor xenograft model. Conditions: compared with isogenic wild type control cells. Type of data set: in vivo.

For `Cc1cnc(CNC(=O)c2c(=O)c3ccc(N4CCCN(C)CC4)nc3n3c2sc2ccccc23)cn1` [Compound I, 2-(4-Methyl-[1,4]diazepan-1-yl)-5-oxo-5H-7-thia-1,11b-diaza-benzo[c]fluorene-6-carboxylic acid (5-methyl-pyrazin-2-ylmethyl)-amide], the EC50 is 68 nM in the data set with RPMI-8226; 83 nM with HL60; 4710 nM with CCD-1058Sk; 23 nM in the data set with A7; 12 nM in the data set with MV 4; 11; 140 nM in the data set with MDA-MB-453. For the same compound, the EC50 in the data set with CCD-1094Sk stood at 4810 nM; with CCD-1096Sk it was 5260 nM; in the data set with SK-OV-3, 78 nM. Also, in data set [1] (Groups 1-10), the “Serious adverse events (SAEs) considered related to Compound I” value is “Three”. Further, the “Treatment-related AE: hand-foot syndrome” value in [1] (Groups 1-10) is listed as 23%. Moreover, the “Treatment-related AE: headache” value in data set [1] (Groups 1-10) came to 10%. The “Treatment-related AE: mucositis” value in data set [1] (Groups 1-10) was determined as 15%. Also, the “Treatment-related AE: nausea” value in [1] (Groups 1-10) worked out at 44%. In addition, in data set [1] (Groups 1-10), the “Treatment-related AE: photosensitivity of the eyes” value was 21%. Also, in [1] (Groups 1-10), the “Treatment-related AE: photosensitivity of the skin” value was found to be 59%. Further, the “Treatment-related AE: rash” value in [1] (Groups 1-10) came to 10%. Besides, the “Dose level toxicity (DLT)” value in data set [1] (Groups 1-10, 50 to 650 mg/m^2 IV) is given as “No dose level toxicity (DLT) were observed”. Further, the “Treatment-related non-DLT grade 3 photosensitivity events” value in [1] (in Groups 1, 5, and 8-10, reversible) was 5. The “Activity in BRCA2 knockout tumor cells in a xenograft model” value in [2] is “wide therapeutic index of activity”.

Source of the values: patent US20210046071A1, “TETRACYCLIC COMPOUNDS AND THEIR SALTS, COMPOSITIONS, AND METHODS FOR THEIR USE” (Senhwa Biosciences, Inc., priority 2019, published 2021).
